Results from patent US20240189311A1, “Combination Therapy of Obicetrapib and Ezetimibe for Use in Statin Intolerant Patients Suffering from Hyperlipidemia or Mixed Dyslipidaemia” (NEWAMSTERDAM PHARMA B.V., priority 2021, published 2024).
Read-outs that look alike come from different tables or passages of the source.

Legend:
[1] = system: low-density lipoprotein cholesterol (LDL-C); assay: Phase 2 study of obicetrapib and ezetimibe in mild dyslipidaemia: LDL-C by Friedewald formula; format: in vivo, human
Excerpt: (§1) Study drugs will be administered by the participant orally and once daily on Days 1 through 57. Study drugs should be administered at approximately the same time each morning, with food. On days with visits scheduled, study drugs should be administered with food following all fasted blood samples. If a participant forgets to take study drug on a given day, they should take the next dose as normal and should not take a double dose to make up for the forgotten dose.
(§2) Up to 2 weeks after the Screening Visit, participants will return to the site on Day 1 (Visit 2) to be randomized and begin treatment. Approximately 100 eligible participants (25 participants per treatment group) will be randomized in a 1:1:1:1 ratio to 1 of the following treatment groups: • Combination therapy: 5 mg obicetrapib+10 mg ezetimibe; • Obicetrapib monotherapy: 5 mg obicetrapib+placebo ezetimibe; • Ezetimibe monotherapy: placebo obicetrapib+10 mg ezetimibe; or • Placebo: placebo obicetrapib+placebo ezetimibe.
LDL-C level was collected using the following 2 approaches: • 1. At each scheduled visit, LDL-C level was calculated using the Friedewald formula; and • 2. In addition, at baseline (Day 1) and at the end of the 8-week Treatment Period (Day 57), LDL-C was measured for all participants by preparative ultracentrifugation (PUC). Primary Efficacy Endpoint Primary analysis
The primary efficacy analysis of the percent change from Day 1 to Day 57 in LDL-C was performed using a mixed model for repeated measures (MMRM) approach. The analysis included fixed effects for treatment, visit, and treatment-by-visit interaction, along with a covariate of the baseline value as a continuous covariate. Randomization was stratified by categories of LDL-C value (<3.5 mmol/L [<135 mg/dL] or >3.5 mmol/L [≥135 mg/dL]) only to ensure similar distribution of LDL-C across all treatment groups; however, the MMRM model included the original scale of the LDL-C value as a continuous covariate. The Restricted Maximum Likelihood estimation approach was used with an unstructured covariance matrix. The least squares (LS) means, standard errors, and 2-sided 95% confidence intervals (CIs) for each treatment group, for the pairwise comparisons of the combination therapy, obicetrapib monotherapy, and ezetimibe monotherapy to placebo, and for the pairwise comparisons of combination therapy and obicetrapib monotherapy versus ezetimibe monotherapy are provided. The treatment comparison was performed using a 2-sided test at the α=0.05 level of significance.
Similar MMRM models were used for the exploratory efficacy endpoints. The proportion of participants at Day 57 that achieved LDL-C<2.6 mmol/L (<100 mg/dL), LDL-C<1.8 mmol/L (<70 mg/dL), and LDL-C<1.3 mmol/L (<50 mg/dL) were examined through Logistic Regression Models for binary variables with covariates of the treatment groups and the baseline variable.
This study was a placebo-controlled, double-blind, randomized Phase 2 study in participants with mild dyslipidemia to evaluate the efficacy, safety, and tolerability of obicetrapib and ezetimibe combination therapy. The primary efficacy endpoint was percent change from Day 1 to Day 57 in LDL-C for the obicetrapib 5 mg+ezetimibe 10 mg group compared to the placebo group.

apolipoprotein B (ApoB) = assay: Phase 2 study of obicetrapib and ezetimibe in mild dyslipidaemia: ApoB; format: in vivo, human; settings: mITT population, oral once daily
Excerpt: as §1, §2
Similar MMRM models were developed to examine the percent change from Day 1 to Day 57 in LDL-C (for other pairwise treatment group comparisons beside the analysis specified for the primary efficacy endpoint, using the Friedewald formula) or ApoB. In order to maintain the overall Type 1 error rate, the secondary efficacy endpoints were tested sequentially at the 0.05 significance level according to the pre-specified order of hierarchy. This applied to the following analyses: • Percent change from Day 1 to Day 57 in LDL-C for the obicetrapib monotherapy group compared to the placebo group; • Percent change from Day 1 to Day 57 in ApoB for the combination therapy group compared to the placebo group; • Percent change from Day 1 to Day 57 in ApoB for the obicetrapib monotherapy group compared to the placebo group; • Percent change from Day 1 to Day 57 in LDL-C for combination therapy group compared to the ezetimibe monotherapy group; • Percent change from Day 1 to Day 57 in LDL-C for the obicetrapib monotherapy group compared to the ezetimibe monotherapy group; • Percent change from Day 1 to Day 57 in LDL-C, for the ezetimibe monotherapy group compared to the placebo group; and • Percent change from Day 1 to Day 57 in ApoB for the combination therapy group compared to the ezetimibe monotherapy group.

[2] = Phase 2 study: safety and tolerability (adverse events); format: in vivo, human
Excerpt: The Safety Population included all participants who received at least 1 dose of any study drug. Treatment classification was based on the actual treatment received. The Safety Population was the primary population used for the safety analyses.
The Safety Population was the primary population for the safety analyses. All safety endpoints are summarized descriptively. No statistical inference was applied to the safety endpoints.
AEs were categorized by primary system organ class (SOC) and preferred term (PT) as coded using the Medical Dictionary for Regulatory Activities (version 23.0) category designations. Summaries of AEs, including the count and percentage of participants who experienced an AE, are provided.
An overview of treatment-emergent adverse events (TEAEs) is provided, including counts and percentages of participants (and event counts).
Listings are presented specifically for TEAEs, treatment-emergent serious adverse events (TESAEs), and TEAEs leading to discontinuation of study drug.

LDL-C = settings: cited from earlier work
[3] = cited from earlier work; for Phase III clinical trial outcome (in words): anacetrapib: 30.000 patient REVEAL trial
HDL-C = settings: cited from earlier work
[4] = mITT population, mild dyslipidaemia, oral once daily, Day 57
[5] = mITT population, oral once daily, baseline to Day 57
[6] = torcetrapib dosed at 60 mg, Phase III clinical trials

O=C1[C@H](CC[C@H](O)c2ccc(F)cc2)[C@@H](c2ccc(O)cc2)N1c1ccc(F)cc1 [Ezetimibe 10 mg, (3R,4S)-1-(4-fluorophenyl)-3-[(3 S)-3-(4-fluorophenyl)-3-hydroxypropyl]-4-(4-hydroxyphenyl)azetidin-2-one]
Number of participants that achieved LDL-C<70 mg/dL by Friedewald formula ([1]; Day 57): 1 participants | Number of participants that achieved LDL-C<100 mg/dL by Friedewald formula ([1]; Day 57): 8 participants | Percentage of participants that achieved LDL-C<70 mg/dL by Friedewald formula ([1]; Day 57): 3.6% | Percentage of participants that achieved LDL-C<100 mg/dL by Friedewald formula ([1]; Day 57): 28.6% | LDL-C by Friedewald formula at Day 57, mean [1, 4]: 109.1 mg/dL | LDL-C by Friedewald formula at Day 57, median [1, 4]: 109.0 mg/dL | Change from baseline to Day 57 in LDL-C by Friedewald formula, mean [1, 5]: -18.0 mg/dL | Change from baseline to Day 57 in LDL-C by Friedewald formula, median [1, 5]: -19.0 mg/dL | Percent change from baseline to Day 57 in LDL-C by Friedewald formula, mean [1, 5]: −12.69% | Percent change from baseline to Day 57 in LDL-C by Friedewald formula, median [1, 5]: −14.80% | ApoB at Day 57, mean (apolipoprotein B (ApoB); mild dyslipidaemia, Day 57): 94.8 mg/dL | ApoB at Day 57, median (apolipoprotein B (ApoB); mild dyslipidaemia, Day 57): 94.0 mg/dL | Change from baseline to Day 57 in ApoB, mean (apolipoprotein B (ApoB); baseline to Day 57): -9.5 mg/dL | Change from baseline to Day 57 in ApoB, median (apolipoprotein B (ApoB); baseline to Day 57): -8.0 mg/dL | Percent change from baseline to Day 57 in ApoB, mean (apolipoprotein B (ApoB); baseline to Day 57): −8.78% | Percent change from baseline to Day 57 in ApoB, median (apolipoprotein B (ApoB); baseline to Day 57): −8.90% | Participants who experienced at least 1 TEAE, number ([2]; Safety Population): 8 participants | Participants who experienced at least 1 TEAE, percentage ([2]; Safety Population): 28.6% | Participants who experienced at least 1 study drug-related TEAE, number ([2]; Safety Population): 3 participants | Participants who experienced at least 1 study drug-related TEAE, percentage ([2]; Safety Population): 10.7% | Participants with a TEAE with a maximum severity of moderate, number ([2]; Safety Population): 4 participants | Participants with a TEAE with a maximum severity of moderate, percentage ([2]; Safety Population): 14.3% | Participants with at least 1 TEAE that led to discontinuation of the study drug, number ([2]; Safety Population): 1 participants | Participants with at least 1 TEAE that led to discontinuation of the study drug, percentage ([2]; Safety Population): 3.6% | Participants who experienced a TESAE / SAE, number ([2]; hyperventilation and multiple fractures, both rated not related to the study drug): Two | Participants who experienced a TESAE, percentage of participants overall ([2]; percentage of participants overall): 1.8% | Participants who experienced a severe TEAE, number ([2]; severe TEAE of multiple fractures): One | Participants who experienced a severe TEAE, percentage of all participants ([2]; severe TEAE of multiple fractures, percentage of all participants): 0.9% | Reduction of LDL-C levels when compared to placebo (LDL-C; ezetimibe mono-therapy, patients with hypercholesterolemia): less than 20%

COc1cc(F)c(C(C)C)cc1-c1ccc(C(F)(F)F)cc1CN1C(=O)O[C@H](c2cc(C(F)(F)F)cc(C(F)(F)F)c2)[C@@H]1C [anacetrapib]
Phase III clinical trial outcome (in words) [3]: reduced major cardiovascular events (MACE)

CCOC(=O)N1c2ccc(C(F)(F)F)cc2[C@@H](N(Cc2cc(C(F)(F)F)cc(C(F)(F)F)c2)C(=O)OC)C[C@H]1CC [Torcetrapib]
Decrease of LDL-C (LDL-C; [6]): 25% | Increase of HDL-C (HDL-C; [6]): 72% | Safety concerns in clinical development (in words) ([3]; torcetrapib, Phase III clinical trials): unexpected increase in cardiovascular events and death

Cc1cc(C)c2c(c1)[C@@H](N(Cc1cc(C(F)(F)F)cc(C(F)(F)F)c1)c1nnn(C)n1)CCCN2C[C@H]1CC[C@H](C(=O)O)CC1 [Evacetrapib]
Phase III clinical trial outcome (in words) [3]: failed to pass a futility interim analysis

CCC(CC)CC1(C(=O)Nc2ccccc2SC(=O)C(C)C)CCCCC1 [Dalcetrapib]
Effects on LDL-C concentrations (in words) (LDL-C; dalcetrapib clinical trials): minimal effects | Increase of HDL-C (HDL-C; dalcetrapib clinical trials): 30-40%
